Experimental data as given in patent US20230250123A1, “GUT MICROBIOTA BIOACTIVATED PDE4 INHIBITOR PRECURSORS” (Giiant Pharma Inc., priority 2020, published 2023).

How the values were obtained:
[1] = Bidirectional Caco-2 permeability assay; type: in vitro ADME; conditions: human; Caco-2, 10 µM, apical pH 6.0 / basolateral pH 7.4, average of 2 determinations
Procedure: In vitro glycoside prodrug permeability assessment. The permeability of the glycoside prodrugs were measured using the bidirectional Caco-2 assay. Caco-2 cells were seeded onto permeable polycarbonate supports in 12-well Costar Transwell plates and allowed to grow and differentiate for 21-25 days. On day 24, culture medium (DMEM supplemented with 10% FBS, 1% non-essential amino acids and penicillin/streptomycin) was removed from both sides of the transwell inserts and cells were rinsed with warm HBSS. […] The buffer in the donor chamber (apical side for A-to-B assay, basolateral side for B-to-A assay) was removed and replaced with the working solution (10 µM test article in transport buffer). The plates were then placed at 37° C. under light agitation. At designated time points (30, 60 and 90 min); an aliquot of transport buffer from the receiver chamber was removed and replenished with fresh transport buffer. Samples were quenched with ice-cold CH3CN containing internal standard and then centrifuged to precipitate the protein. Resulting supernatants were further diluted with 50/50 ACN/H2O (H2O only for Atenolol) and submitted for LC/MS/MS analysis. […] Atenolol and propranolol were tested as low and […] permeability references. […] The apparent permeability (Papp, measured in cm/s) of a compound is determined according to the following formula: […]
Where dQ/dt is the net rate of appearance in the receiver compartment, A is the area of the Transwell measured in cm^2 (1.12 cm^2), C0 is the initial concentration of compound added to the donor chamber and 60 is the conversion factor for the minute to second.

[2] = In vitro rate of glycoside prodrug hydrolysis in feces supernatant, rat; type: in vitro ADME; conditions: 100 µM, 37° C., pH 6.5, 24 hr
Procedure: In vitro rate of glycoside prodrugs hydrolysis. The metabolic stability of prodrug candidates to release the parent PDE4 inhibitor could be assessed in vitro according, but not restricted, to the following protocol: feces were collected overnight on a mixture of dry and wet ice in a metabolic cage. Ten volumes (v/w; 30 mL) of 100 mM phosphate buffer (pH 6.5) were added to 3 g of freshly collected rodent feces. The mixture was homogenized with a Stomacher Circulator 400 (2 × 1 min-cycles at 225 rpm). The mixture was transferred to a 50 mL tubes, centrifuged at 10 000xg for 10 min (4° C.) and the supernatant was passed through a 0.45 µm-filter. In a 96 deep-well plate, 198 µL of feces supernatant were aliquoted in 2 wells per compound. Each compound, including positive control, was tested in duplicate. Then 2 µL of 10 mM stock solution of each test compound were spiked in individual wells (duplicate) at a final concentration of 100 µM and samples were sealed and mixed 30 sec at 1000 rpm using a vortexer. Samples were incubated at 37° C. for the desired time in the Thermomixer with constant agitation (300 rpm). At desired time-point, 25 µL of reaction mixture was added to 225 µL of ice-cold quenching solution (acetonitrile + 0.1% (v/v) formic acid) to stop the bacterial enzymatic activity. The quenched incubates were mixed and centrifuged 10 min at 21 000xg at 4° C. A real t0 (no metabolism, 100% total recovery of unchanged prodrug) was generated by adding 22.5 µL of feces supernatant to 225 µL of ice-cold quenching solution (acetonitrile + 0.1% (v/v) formic acid). Then 2.5 µL of 1 mM solution of each test compounds was added, sealed, mixed thoroughly and centrifuged 10 min at 21 000xg at 4° C. All samples, including analytical standards, were analyzed by LC-MS/MS to measure the concentration of the parent PDE4 inhibitor released and the concentration of the corresponding prodrug remaining. A set criteria of 100% recovery is targeted where the summation of the % of prodrug remaining and the % of parent PDE4 inhibitor released should be 100% with an experimental error tolerance of ± 20%. When prodrugs represented by Formula (I) were incubated 24 hours under the conditions described above using mouse, rat and dog feces, the glycoside prodrugs were hydrolyzed to release the corresponding parent PDE4 inhibitor III (Table 3). As a negative control, when compound 4, 10 and 21 were incubated 24 hours under the conditions described above but in the absence of enzyme activities, using mouse feces extract supernatant inactivated by boiling the supernatant 10 minutes, 100% of the prodrugs were recovered unchanged.

Row | Compound | Papp A→B at 10 µM [1] | Prodrug Remaining @ 24 hr (%) [2]
1 | CNC(=O)[C@H]1O[C@@H](Oc2ccc(C[C@@H](c3ccc(OC(F)F)c(OC4CC4)c3)c3cnc(C(O)(C(F)(F)F)C(F)(F)F)s3)cn2)[C@H](O)[C@@H](O)[C@@H]1O [Compound 15, (2S,3S,4S,5R,6S)-methyl 6-((5-((S)-2-(3-cyclopropoxy-4-(difluoromethoxy)phenyl)-2-(2-(1,1,1,3,3,3-hexafluoro-2-hydroxypropan-2-yl)thiazol-5-yl)ethyl)pyridin-2-yl)oxy)-3,4,5-trihydroxytetrahydro-2H-pyran-2-carboxamide] | 1.5 ×10⁻⁶ cm/s | 74%
2 | CC(C)(O)c1ccc([C@@H](Cc2ccc(O[C@@H]3O[C@H](CO)[C@@H](O[C@@H]4O[C@H](CO)[C@@H](O)[C@H](O)[C@H]4O)[C@H](O)[C@H]3O)nc2)c2ccc(OC(F)F)c(OC3CC3)c2)cn1 [Compound 31, (2S,3R,4S,5S,6R)-2-(((2R,3S,4R,5R,6S)-6-((5-((S)-2-(3-cyclopropoxy-4-(difluoromethoxy)phenyl)-2-(6-(2-hydroxypropan-2-yl)pyridin-3-yl)ethyl)pyridin-2-yl)oxy)-4,5-dihydroxy-2-(hydroxymethyl)tetrahydro-2H-pyran-3-yl)oxy)-6-(hydroxymethyl)tetrahydro-2H-pyran-3,4,5-triol] | 0.02 ×10⁻⁶ cm/s | 0.6%
3 | CC(=O)OC[C@H]1O[C@H](Oc2ccc(C[C@H](c3ccc(C(C)(C)O)nc3)c3ccc(OC(F)F)c(OC4CC4)c3)cn2)[C@@H](OC(C)=O)[C@@H](OC(C)=O)[C@@H]1OC(C)=O [Compound 19, (2R,3R,4S,5S,6R)-2-(acetoxymethyl)-6-((5-((S)-2-(3-cyclopropoxy-4-(difluoromethoxy)phenyl)-2-(6-(2-hydroxypropan-2-yl)pyridin-3-yl)ethyl)pyridin-2-yl)oxy)tetrahydro-2H-pyran-3,4,5-triyl triacetate] | – | 0.7%
4 | CC(C)(O)c1ccc([C@@H](Cc2ccc(O[C@H]3O[C@H](CO)[C@@H](O)[C@H](O)[C@@H]3O)nc2)c2ccc(OC(F)F)c(OC3CC3)c2)cn1 [Compound 20, (2R,3S,4S,5S,6R)-2-((5-((S)-2-(3-cyclopropoxy-4-(difluoromethoxy)phenyl)-2-(6-(2-hydroxypropan-2-yl)pyridin-3-yl)ethyl)pyridin-2-yl)oxy)-6-(hydroxymethyl)tetrahydro-2H-pyran-3,4,5-triol] | 0.2 ×10⁻⁶ cm/s | 0.0%
5 | CC(C)(O)c1ccc([C@@H](Cc2ccc(O[C@@H]3O[C@H](CO)[C@H](O)[C@H](O)[C@H]3O)nc2)c2ccc(OC(F)F)c(OC3CC3)c2)cn1 [Compound 18, (2S,3R,4S,5R,6R)-2-((5-((S)-2-(3-cyclopropoxy-4-(difluoromethoxy)phenyl)-2-(6-(2-hydroxypropan-2-yl)pyridin-3-yl)ethyl)pyridin-2-yl)oxy)-6-(hydroxymethyl)tetrahydro-2H-pyran-3,4,5-triol] | 0.1 ×10⁻⁶ cm/s | 0.0%
6 | COC(=O)[C@H]1O[C@@H](Oc2ccc(C[C@@H](c3ccc(OC(F)F)c(OC4CC4)c3)c3cnc(C(O)(C(F)(F)F)C(F)(F)F)s3)cn2)[C@H](OC(C)=O)[C@@H](OC(C)=O)[C@@H]1OC(C)=O [Compound 6, (2S,3R,4S,5S,6S)-2-((5-((S)-2-(3-cyclopropoxy-4-(difluoromethoxy)phenyl)-2-(2-(1,1,1,3,3,3-hexafluoro-2-hydroxypropan-2-yl)thiazol-5-yl)ethyl)pyridin-2-yl)oxy)-6-(methoxycarbonyl)tetrahydro-2H-pyran-3,4,5-triyl triacetate] | – | 23%
7 | CC(=O)OC[C@H]1O[C@@H](Oc2ccc(C[C@H](c3ccc(C(C)(C)O)nc3)c3ccc(OC(F)F)c(OC4CC4)c3)cn2)[C@H](OC(C)=O)[C@@H](OC(C)=O)[C@@H]1OC(C)=O [Compound 3, (2R,3R,4S,5R,6S)-2-(acetoxymethyl)-6-((5-((S)-2-(3-cyclopropoxy-4-(difluoromethoxy)phenyl)-2-(6-(2-hydroxypropan-2-yl)pyridin-3-yl)ethyl)pyridin-2-yl)oxy)tetrahydro-2H-pyran-3,4,5-triyl triacetate] | 1.4 ×10⁻⁶ cm/s | 0.1%
8 | COC(=O)[C@H]1O[C@@H](Oc2ccc(C[C@H](c3ccc(C(C)(C)O)nc3)c3ccc(OC(F)F)c(OC4CC4)c3)cn2)[C@H](OC(C)=O)[C@@H](OC(C)=O)[C@@H]1OC(C)=O [Compound 8, (2S,3R,4S,5S,6S)-2-((5-((S)-2-(3-cyclopropoxy-4-(difluoromethoxy)phenyl)-2-(6-(2-hydroxypropan-2-yl)pyridin-3-yl)ethyl)pyridin-2-yl)oxy)-6-(methoxycarbonyl)tetrahydro-2H-pyran-3,4,5-triyl triacetate] | 0.6 ×10⁻⁶ cm/s | –
9 | OC[C@H]1O[C@@H](Oc2ccc(C[C@@H](c3ccc(OC(F)F)c(OC4CC4)c3)c3cnc(C(O)(C(F)(F)F)C(F)(F)F)s3)cn2)[C@H](O)[C@@H](O)[C@@H]1O [Compound 2, (2S,3R,4S,5S,6R)-2-((5-((S)-2-(3-cyclopropoxy-4-(difluoromethoxy)phenyl)-2-(2-(1,1,1,3,3,3-hexafluoro-2-hydroxypropan-2-yl)thiazol-5-yl)ethyl)pyridin-2-yl)oxy)-6-(hydroxymethyl)tetrahydro-2 H-pyran-3,4,5-triol] | 0.07 ×10⁻⁶ cm/s | 0.5%
10 | COC(=O)[C@H]1O[C@@H](Oc2ccc(C[C@@H](c3ccc(OC(F)F)c(OC4CC4)c3)c3cnc(C(O)(C(F)(F)F)C(F)(F)F)s3)cn2)[C@H](O)[C@@H](O)[C@@H]1O [Compound 7, (2S,3S,4S,5R,6S)-methyl 6-((5-((S)-2-(3-cyclopropoxy-4-(difluoromethoxy)phenyl)-2-(2-(1,1,1,3,3,3-hexafluoro-2-hydroxypropan-2-yl)thiazol-5-yl)ethyl)pyridin-2-yl)oxy)-3,4,5-trihydroxytetrahydro-2H-pyran-2-carboxylate] | 1 ×10⁻⁶ cm/s | 35%
11 | CN(C)[C@H]1[C@H](Oc2ccc(C[C@@H](c3ccc(OC(F)F)c(OC4CC4)c3)c3cnc(C(O)(C(F)(F)F)C(F)(F)F)s3)cn2)O[C@H](CO)[C@@H](O)[C@@H]1O [Compound 27, (2R,3S,4R,5R,6S)-6-((5-((S)-2-(3-cyclopropoxy-4-(difluoromethoxy)phenyl)-2-(2-(1,1,1,3,3,3-hexafluoro-2-hydroxypropan-2-yl)thiazol-5-yl)ethyl)pyridin-2-yl)oxy)-5-(dimethylamino)-2-(hydroxymethyl)tetrahydro-2H-pyran-3,4-diol] | 2.4 ×10⁻⁶ cm/s | 93%
12 | CC(=O)OC[C@H]1O[C@@H](Oc2ccc(C[C@H](c3ccc(C(C)(C)O)nc3)c3ccc(OC(F)F)c(OC4CC4)c3)cn2)[C@H](OC(C)=O)[C@@H](OC(C)=O)[C@H]1OC(C)=O [Compound 17, (2R,3S,4S,5R,6S)-2-(acetoxymethyl)-6-((5-((S)-2-(3-cyclopropoxy-4-(difluoromethoxy)phenyl)-2-(6-(2-hydroxypropan-2-yl)pyridin-3-yl)ethyl)pyridin-2-yl)oxy)tetrahydro-2H-pyran-3,4,5-triyl triacetate] | – | 0.0%
